Experiments:
MPM-2 antigens = experiment: GST-Pin1 pull-down / depletion of MPM-2 antigens from HeLa cell extracts, MPM-2 immunoblotting; type: binding, human
Experimental: To detect Pin1-binding proteins, either HeLa cells were lysed in or Xenopus extracts were diluted in a buffer (buffer A) containing 50 mM Tris-HCl, pH 8.0, 200 mM NaCl, 100 mM NaF, 1 mM sodium orthovanadate, 10% glycerol, 1% Triton X100, 10 μg/ml aprotinin, 50 μg/ml phenylmethylsulfonyl fluoride and 1 mM DTT. The lysates were preclarified with boiled S. aureus bacteria (CalBiochem) and then incubated with 10 μl of agarose beads containing various GST-Pin1 proteins or control GST for 2 h at 4° C. The precipitated proteins were washed 5 times in the same buffer and subjected to immunoblotting analysis. Immunoprecipitation and immunoblotting analysis using MPM-2 antibody (Davis et al. 1983), which was kindly provided by J. Kuang, Pin1 antibodies (Lu et al., 1996, kindly provided by M. White or newly generated), anti-phospho.Tyr antibody (UBI), anti-Cdc25C (Ogg, et al., 1994) (from H. Piwnica-Worms and Santa Cruz Biotechnology), anti-Cdc27, anti-Plk1 (Zymed), anti-Cdc2 (Solomon, M. J., M. Glotzer, T. H. Lee, M. Philippe and M. W. Kirschner. Cell 63:1013-1024 (1991), anti-human Myt1, anti-human cyclin B1 and anti-Xenopus cyclin B were performed, as described previously in Lu and Hunter, 1995; Lu et al., 1996).
To determine whether GST-Pin1 can deplete MPM-2 antigens and to estimate what concentrations of Pin1 are required to completely deplete MPM-2 antigens, mitotic extracts were incubated with different amounts of GST-Pin1, followed by analyzing MPM-2 antigens remaining in the depleted supernatants. The total cellular Pin1 concentration in HeLa cells was estimated to be about 0.5 μM, based on immunoblotting analysis using anti-Pin1 antibodies with recombinant Pin1 protein as a standard.
To determine if the Pin1 mutants interact with mitotic phosphoproteins, GST-Pin1, -Pin1^R68,69A and -Pin1^H59A fusion proteins were incubated with interphase or mitotic HeLa cell extracts and associated proteins subjected to MPM-2 immunoblotting analysis. […] A few proteins including the most strongly reacting p55 band could still be recognized. […] Thus, mutating the residues that are implicated in binding either the substrate's putative phosphate group or the substrate's Pro residue abolish the ability of Pin1 to bind MPM-2 antigens.

Xenopus egg extracts = experiment: Entry into mitosis in Xenopus CSF egg extracts; type: biochemical; settings: 10 or 40 μM, added 15 min after Ca2+
Experimental: Xenopus CSF extracts were prepared from unfertilized eggs, as previously described (Murray, 1991) and used immediately. To examine the effect of Pin1 on mitotic entry, a fresh CSF extract containing demembranated sperm (150/μl) and rhodamine tubulin (2 μg/ml) was activated by addition of 0.4 mM calcium chloride for 15 min, before the indicated concentrations of various Pin1 proteins were added and mitotic entry was followed for 2 h by nuclear morphology, nuclear envelope breakdown, spindle formation and Cdc2 activity, as described previously (Murray, A. W., Methods Cell Biol 36:581-605 (1991)). The cell cycle state of nuclei within the extracts were over 90% synchronous and typical nuclei were photographed.
To examine whether increasing the concentration of Pin1 has similar biological effects in Xenopus, Pin1 or Pin1 mutants were injected into one cell of 2 cell stage embryos and allowed the embryos to develop for 3 h (about 5 divisions). […] A similar concentration (4 μM final) of either Pin1 mutant had little effect on the cell cycle. […] In contrast, higher concentrations of the mutant proteins were needed to block the cell cycle (FIG. 1). […] In contrast, the same extracts containing 40 μM of either BSA or the mutant Pin1 proteins entered mitosis by 70 to 80 min as detected by nuclear envelope breakdown, spindle formation and high histone H1 kinase activity. […]

Pin1: essential mitotic peptidyl-prolyl cis-trans isomerase, recombinant protein
depletion of MPM-2 antigens (MPM-2 antigens; 8 μM GST-Pin1, mitotic extracts): depleted the majority of MPM-2 antigens
binding of MPM-2 antigens (MPM-2 antigens; mitotic HeLa cell extracts, GST fusion proteins): specifically interacted with MPM-2 antigens
entry into mitosis (Xenopus egg extracts): completely blocked entry into mitosis

Reference: patent US6462173B1, “Inhibitors of phosphoserine and phosphothreonine-proline-specific isomerases” (Max-Planck-Gesellschaft zur Forderung der, priority 1997, dated 2002)
